Earlier results as cited in patent publication EP3338772A1, “[…] COMPOSITIONS STABILIZED BY HYDROXYCARBOXYLIC ACIDS , THE PRODUCTION THEREOF AND HIGHLY CONCENTRATED MAGNESIUM COMPOSITIONS” (Merz Pharma GmbH & Co. KGaA, priority 2016, dated 2018).
Read-outs that look alike come from different tables or passages of the source.

Tests used:
[1] = water

Calcium-Magnesium-Lactat-Citrat-Komplex
Löslichkeit in Wasser, Calcium [1]: 900 mg/L | Löslichkeit in Wasser, Magnesium [1]: 300 mg/L

Trimagnesiumdicitrat*Nonahydrat (C12H10O14Mg3*9H2O)
Löslichkeit (25 °C): 18,14 g(Mg^2+)kg^-1H2O

Trimagnesiumdicitrat*Tetradecanhydrat (C12H10O14Mg3*14H2O)
Löslichkeit (22 °C): 19,40 g(Mg^2+)kg^-1H2O | maximale Magnesium-Konzentration (Raumtemperatur, without hydroxycarboxylic acid): 19,40 g(Mg^2+) kg^-1 (Wasser)
